Laboratory results taken from article PMC4757757, “Discovery of cahuitamycins as biofilm inhibitors derived from a convergent biosynthetic pathway” (Nature Communications, 2016).

Legend:
[1] = reference value used for the calculation; cited from earlier work
Method: (§1) In this method, the Fe–cahuitamycin complex was incubated with varying concentrations of EDTA and assessed for Fe distribution using ultraviolet–visible spectroscopy (Methods). The pFe^III for cahuitamycins were calculated against the known stability constants for EDTA (pFe^III=23.42)[24].

[2] = iron affinity (pFe^III) by competition titration with EDTA, UV-visible spectroscopy; type: binding; conditions: 10 mM HEPES, 0.1 M KCl, pH 7.4, 0.1 mM Fe complex, room temperature, at least 24 h, UV-vis, three individual titrations
Method: as §1

A. baumannii ATCC 17978 = assay: growth of A. baumannii (minimum inhibitory concentration test, OD600 / CFU); type: cell-based, Acinetobacter baumannii
Method: Cultures of A. baumannii ATCC 17978 grown overnight were diluted into fresh 10% Mueller Hinton II broth to get 10^5 colony-forming unit per ml by determining optical density at OD600. A volume of 100 μl of diluted cultures were incubated in individual wells of 96-well plate containing 1% of DMSO and various concentrations of cahuitamycins C (3) and D (4). The plate was incubated at 30 °C with shaking at 150 r.p.m. The optical density of each well was monitored every 1 up to 24 h using a microtiter plate reader (Synergy HT, Bio-Tek, Winooski, VT). The number of viable bacterial cells was determined by counting colony-forming unit.

[3] = test system: A. baumannii ATCC 17978 biofilm; assay: confocal laser scanning microscope 3D imaging of biofilm formation and biomass (SYTO 9 / propidium iodide, COMSTAT); type: cell-based, Acinetobacter baumannii
Method: For visualizing bacterial biofilm formation, the same method as described previously was used for biofilm formation but in a glass-bottom 96-well plate (12–556–38, Fisher Scientific International Inc., Franklin, MA)[65]. […] PBS buffer (100 μl) containing 1 μM of SYTO 9 and 10 μM of propidium iodide was added into the well. The plate was incubated for 15 min in dark. Fluorescent images were acquired with an Olympus Fluoview FV1000 confocal microscope (Olympus, Markham, Ontario) with Melles Griot Laser supply and detectors and filter sets for monitoring SYTO 9 and propidium iodide fluorescence. Images were obtained using an oil immersion × 60 objective lens. 3D images were reconstructed using the Amira software package (Amira, San Diego, CA) from a stack of sectional images of biofilm samples. Biofilm biomass and per cent coverage were calculated based on those images using software COMSTAT[65].

[4] = test system: A. baumannii ATCC 17978 biofilm; type: cell-based, Acinetobacter baumannii; conditions: static crystal violet assay, OD600
From the text: A static biofilm assay was developed from a previously reported method. The biofilm assay measures the adhesion of bacteria to the surface of polystyrene 384-well microtiter plates. Adherent cells are detected by staining with crystal violet and subsequent washing to remove nonadherent planktonic cells. Inhibitors of biofilm formation prevent the bacteria from adhering to the surface of the microtiter plate and reduce the amount of crystal violet retained after washing. Assay quantification was performed by OD600 absorbance measurement of the crystal-violet-stained biofilm. The assay was optimized for plate surface treatment, time, temperature, media, media concentration, crystal violet concentration, wash method, inhibitor sensitivity and culture inoculum preparation.
The A. baumannii test strain (ATCC 17978) was maintained as a frozen stock at −80 °C in 20% glycerol. A volume of 5 ml of Mueller Hinton II cation adjusted media (Becton Dickinson, catalogue no. 212322) was inoculated and grown at 37 °C, 180 r.p.m. shaking for 4–6 h. The culture was then diluted 1:50 and incubated an additional 2 h. The resulting cells were washed four times by centrifugation and resuspension of the pellet in media was performed to remove any metabolites or cell signalling factors. The assay inoculum was prepared by diluting the cells to 0.008 OD600 in 10% Mueller Hinton II cation adjusted media (diluted in 18 Ohm deionized water). The assay plates (Corning, catalogue no. 3,680; 384-well non-treated polystyrene) were prepared by dispensing 20 μl of 10% Mueller Hinton II cation adjusted media into columns 1–22 using a Multidrop Combi dispenser (Thermo Fisher). The NPE samples were added as 0.2 μl of 15 mg ml^−1 stocks in DMSO using a Biomek FX high-density pintool (Beckman Coulter). Column 1 and 2 contained DMSO without NPEs and served as the negative control. The positive control was added to column 23 and 24 as 20 μl of 40 μM Baicalein (Sigma-Aldrich, catalogue no. 11712). […] Quantification was performed by measuring the OD600 absorbance using a Pherastar plate reader (BMG).

[5] = test system: A. baumannii ATCC 17978 biofilm; assay: flow cell biofilm assay (micrographs); type: cell-based, Acinetobacter baumannii; conditions: for biofilm in flow cells after 6 h of supplementation (in words) / biofilm in flow cells after 24 h of supplementation (in words): 7.5 μg/ml in 10% MHII broth, flow rate 4 ml/h, room temperature
Method: Next, we sought to probe the specific stage and extent of inhibition during biofilm formation employing a secondary flow cell assay (Supplementary Fig. 44; Methods).
Biofilms were formed by A. baumannii ATCC 17978 in flow chambers at room temperature. Images were taken at 1, 6 and 24 h (using a × 60 lens) after inoculation. A flow cell biofilm was achieved by using a flow cell chamber (ACCFL0001, Life Science Incorporated, Greensboro, NC). Briefly, overnight cultures of A. baumannii ATCC 17978 grown in MHII broth at 37 °C were diluted 100-fold with fresh MHII broth. A volume of 1 ml of dilution was injected into a flow cell chamber and allowed to settle 1 h for attachment of bacteria, followed by initiation media flow at a flow rate of 4 ml^−1 h^−1. Flow media was 10% MHII broth (control), 10% MHII broth with 7.5 μg ml^−1 of desferoxamine or 10% MHII broth with […] of cahuitamycin A. Micrographs of the biofilm were acquired at 1, 6 and 24 h after the start of flow media using an Olympus IX70 microscope with a × 60 lens. Flow was still running while acquiring the micrograph.

[6] = treated at 240 nM, 22 h incubation, confocal x60, average of five replicates

Molecule	pFe^III [2]	effect on bacterial growth (in words) (A. baumannii ATCC 17978)	total biomass of biofilm ([3]; glass plate treated at 240 nM)	Average thickness of biofilm [3, 6] [μm]	Maximum thickness of biofilm [3, 6] [μm]	Roughness coefficient of biofilm [3, 6]	total biomass of biofilm [3, 6] [μm^3 μm^−2]	biofilm in flow cells after 6 h of supplementation (in words) [5]	biofilm in flow cells after 24 h of supplementation (in words) [5]	effect on biofilm formation (in words) [4]	further results
O=C(O)CN(CCN(CC(=O)O)CC(=O)O)CC(=O)O [EDTA]											pFe^III (known stability constant) [1]: 23.42
Cc1cccc(O)c1C1=N[C@H](C(=O)N[C@@H](CO)C(=O)N[C@H](CCCN(O)C=O)C(=O)N2NCCC[C@@H]2C(=O)NCCC(=O)O)CO1 [compound 3, Cahuitamycin C]	17.52±0.12	limited effect	0.10	0.20±0.05	1.5±0.33	1.99±0.20	0.10±0.03				
Cc1ccc(O)c(C2=N[C@H](C(=O)N[C@@H](CO)C(=O)N[C@H](CCCN(O)C=O)C(=O)N[C@H](CCCNO)C(=O)NCCC(=O)O)CO2)c1 [compound 5, Cahuitamycin E]											IC50 ([4]; 10% Mueller Hinton II, 30 °C, 20 h, average of three replicates, read-out: IC50, inhibition of biofilm formation): 10.5 µM
CC(=O)N(O)CCCCCNC(=O)CCC(=O)N(O)CCCCCNC(=O)CCC(=O)N(O)CCCCCN [desferrioxamine]								formation of a robust biofilm	biofilm became thicker		anti-biofilm activity of siderophore control (in words) ([5]; control to probe iron chelation as mode of action, Supplementary Figs 38 and 44): no activity
Cahuitamycin A [compound 1]	18.34±0.16		0.18	0.21±0.07	1.5±0.54	1.99±0.18	0.18±0.05	only a few microcolonies	larger microcolonies and initiation of biofilm formation	able to inhibit	
Cahuitamycin B [compound 2]	20.42±0.09	no effects								no effects	
